Results reported in patent US5594144A, “Tropolone derivatives and pharmaceutical composition thereof for preventing and treating ischemic diseases” (The Upjohn Company, priority 1990, dated 1997).
Like-named read-outs stand apart in the source and are kept apart here.

Experiments:
[1] = test system: Brain microsomal fractions; assay: in vitro Anti-lipid peroxidation effect (TBAR production, Fe3+-ADP/NADPH); format: biochemical, rat (SD strain, male)
Description: 1. in vitro Anti-lipid peroxidation effect
Brain microsomal fractions were prepared from male rats of SD strain, and a portion (0.2 mg protein) was incubated at 37° C. for 15 minutes with a mixture of Fe^3+ (0.1 mM)--ADP (0.5 mM) in the presence or absence of the test compound, in final volume of 1 ml of 10 mM HEPES, 150 mM KCl, 0.2 mM NADPH, pH 7.4. After incubation, 1.5 ml of TCA-TBA-HCl reagent (16.7% trichloroacetic acid, 0.4% thiobarbituric acid, 0.278N hydrochloric acid) was added and the reaction mixture was heated in a boiling water for 15 minutes. After cooling in ice-bath, the reaction mixture was centrifuged, and the absorbance of the supernatant at 535 nm was measured. The amount of thiobarbituric acid reactive substance (TBAR) was obtained by calculation using an extinction coefficient of 1.56×10^5 […]. […] The results are shown in Table 1A for compounds of the formulas IA, IB, and IC, respectively. The compounds with highest inhibition rate have the greatest anti-lipid peroxidation effect.

ventricular arrhythmia = assay: in vivo Ischemic heart/reperfusion test; settings: Rattus norvegicus, iv
Description: 4. in vivo Ischemic heart/reperfusion test
Experiment was carried out using rats anesthetized with pentobarbital under artificial respiration. After the forth rib was excised, heart was exposed by thoracotomy, and the thread was placed under the left coronary artery at it origin. Then, the heart was returned and a thread was passed in a tube. Compounds were applied through tail vein. After 10 minutes, the thread in the tube was pulled to occlude coronary artery. Five minutes after occlusion, the thread was loosened again for reperfusion. Then, ventricular arrhythmia was recorded on electrocardiogram (lead II), by sticking needle electrodes into a right fore-limb and a left hind-limb. Duration time of ventricular tachycardia and occurrence of ventricular fibrillation caused after reperfusion were compared between a group receiving the test compounds and a similarly treated vehicle group. If either of two parameters of the group that received the test compound became less than half of that of the group that received the vehicle, the test compound was estimated as "active".

[2] = test system: pig right coronary artery; assay: in vitro Ca-antagonism (high K+ induced 45Ca-influx); format: cell-based; settings: Sus scrofa, K+ 75 mM
Description: 2. in vitro Ca-antagonism
A strip of pig right coronary artery was depolarized with high K^+ (75 mM) for 30 minutes to induce voltage dependent ^45 Ca-influx. The extracellular ^45 Ca was chelated by adding EGTA and removed by washing, then the strip was lysed at 100° C. ^45 Ca in this lysate was measured as intracellular ^45 Ca by a scintillation counter. The concentration of the test compound was 10^-7, 10^-6, 10^-5 M, and applied until depolarization by K^+ was completed. Ratio of inhibition at various concentrations of the test compounds for increasing the intracellular ^45 Ca by K^+ was determined. The compound with high inhibition ratio has strong Ca-antagonism.

[3] = test system: Mouse Cerebral Ischemia/Reperfusion; assay: in vivo Behavior test (Mouse Cerebral Ischemia/Reperfusion Test); design: species or system mouse (ICR strain, male)
Description: Bilateral common carotid arteries of both sides of ICR strain male mice (about 8 weeks old) were occluded for 5 minutes while lightly anesthetized, then blood was reperfuged. The test compounds were intraperitoneally administered 10 minutes before occlusion and within 3 hours after reperfusion. Since a day after reperfusion, behavior disorder was evaluated by spontaneous motor activity of exploratory behavior, traction test and passive avoidance test. That is, spontaneous motor activity was evaluated as follows. Motor activity was measured by tilting cage method for 30 minutes since immediately after a mouse was placed in a measurement cage. If the motor activity was at least more than (average of spontaneous motion of the group received solvent) +2×SD, the compound was evaluated as "active." In traction test, both fore limbs of the mouse were placed on the horizontally stretched wire. If the mouse put its hind limb within 2 seconds, the compound was estimated as "active.". In passive avoidance test, a step-through type apparatus was used, and as acquisition trial of blood reperfusion, electrical shock (about 0.5 mA, 3 seconds) was given to the mice as soon as the whole body of mice entered the black room and on the next day test trial was carried out. The mouse which stayed in a light room for at least 300 seconds was estimated as an active example. In all tests, the test compound which provided at least 50% of active animals was determined as "active." The results are shown in Table 5.

porcine coronary artery = assay: in vitro Coronary vasodilation effect (PGF2α-contracted strip); format: cell-based; settings: Sus scrofa; 25% of papaverine-induced relaxation; read-out: Coronary Vasodilation (ED25 μM)
Description: 3. in vitro Coronary vasodilation effect
The right portion of a porcine coronary artery was isolated, and cut into 3 mm wide strip which was suspended in a organ bath filled with 20 ml of Krebs--Henseleit solution (37° C.). During the experiment the bath solution was aerated with 95% O2 +5% Co2. The change in tension was measured using an isometric transducer. After load tension was stabilized, the preparation was contracted with PGF2α (10^-6 -[…]). After the contract level had stabilized the test compound was cumulatively applied from 10^-8 to 10^-5 M. Papaverine (10^-4 M) was used to obtain maximal relaxation at the end of the experiment. The result was expressed as the percentage of papverine-induced relaxation, and the concentration of the test compound which gave 25% relaxation of papaverine-induced relaxation was defined as ED25. The compound with low ED25 value has great coronary vasodilation effect.

cerebral blood flow = assay: Normal cerebral flow stream test; format: in vivo; settings: Rattus norvegicus, iv; urethane anesthetized; laser Doppler; read-out: active dose (increase in cerebral blood flow)
Description: 6. Normal cerebral flow stream test
Experiment was carried out using rats anesthetized with urethane. After a cannulas for blood pressure monitoring and that for drug administration were inserted into femoral artery and vein, respectively. Temporal bone was cut away on a brain stereotaxis apparatus and a probe for measurement of cerebral blood flow was placed on dura mater. The cerebral blood flow was measured using a laser Dopplar blood flow meter. Firstly, a solvent of the test compound was administered intravenously and then three doses of the compound were administered in order of dose every fifteen-minute intervals. When an average of increase in cerebral blood flow due to the test compound minus 2×SE was larger than that of change in cerebral blood flow due to the solvent, the dose was estimated as "active". The compound (1B) was active in the dose of not less than 3 mg/kg i.v.

[4] = test system: KCN-induced respiratory arrest; assay: in vivo Anti-anoxia effect (KCN lethal dose); design: species or system mouse (ICR strain, male); settings: Mus musculus, po; * methansulfonate; KCN 3.0 mg/kg
Description: 7. in vivo Anti-anoxia effect
A group (5 mice) of ICR strain male mice (about 8-week-old) were used. One or two hours after the test compounds were orally administered, a lethal dose (3.0 mg/kg) of KCN was administered into tail vein. A period of time to respiratory arrest and a survival rate were measured. The test compound which provided at least 50% of active example was determined as "active".

[5] = read-out: Minimal Effective Dose (mg/kg, i.v.)
[6] = ip, route cell empty (method: intraperitoneally)

Row | SMILES | Anti-Lipid Peroxidation (% inhibition) 10 μM [1] [%] | Anti-Lipid Peroxidation (% inhibition) 50 μM [1] [%] | minimal effective dose (ventricular arrhythmia; [5]) [mg/kg] | inhibition at 10 µM [2] [%] | EC25 (porcine coronary artery) [µM] | minimal effective dose ([3]; ip) [mg/kg] | other results
1 | COc1cc(C(C)C)ccc(C2Sc3ccccc3N2CCCN(C)CCc2ccccc2)c1=O (stereo not drawn) [Compound 10B, 2-(2'-oxo-3'-methoxy-5'-isopropyl-3',5',7'-cycloheptatrienyl)-3-[3-(N-methyl-N-phenethylamino)propyl]benzothiazoline] | 93.0 | 94.5 | < 5 |  |  |  | 
2 | CC(C)c1ccc(CN2CCN(C(c3ccccc3)c3ccc(Cl)cc3)CC2)c(=O)c(O)c1 (stereo not drawn) [Compound 1A, 7-[4-(4-chlorobenzhydryl)piperazino-1-methyl]-2-hydroxy4-isopropyl-2,4,6-cycloheptatrien-1-one] | 6.7 | < 21.3 |  | 44 | > 10 |  | minimal effective dose [3, 6]: > 10 mg/kg
3 | COc1cc(C(C)C)ccc(C2Sc3ccccc3N2Cc2ccncc2)c1=O (stereo not drawn) [Compound 6B, 2-(2'-oxo-3'-methoxy-5'-isopropyl-3',5',7'-cycloheptatrienyl)-3-(4-picolyl)benzothiazoline] | 93.1 | 96.6 |  |  |  |  | minimal effective dose ([3]; iv): < 1 mg/kg
4 | COc1cc(C(C)C)ccc(CN2CCN(C(c3ccc(F)cc3)c3ccc(F)cc3)CC2)c1=O [Compound 7A, 7-[4-(4,4'-difluorobenzhydryl)piperazino-1-methyl]-4-isopropyl-2-methoxy-2,4,6-cycloheptatrien-1-one] | 27.2 | 59.2 | < 5 | 100 | 1.9 |  | minimal effective dose [3, 6]: < 10 mg/kg
5 | COc1cc(C(C)C)ccc(C2Sc3ccccc3N2C)c1=O (stereo not drawn) [Compound 2B, 2-(2'-oxo-3'-methoxy-5'-isopropyl-3',5',7'-cycloheptatrienyl)-3-methylbenzothiazoline] | 95.5 |  |  |  |  | 1 | 
6 | COc1cc(C(C)C)ccc(C2Sc3ccccc3N2CCN(C)C)c1=O (stereo not drawn) [Compound 11B, 2-(2'-oxo-3'-methoxy-5'-isopropyl-3',5',7'-cycloheptatrienyl)-3-[2-(N,N-dimethylamino)ethyl]benzothiazoline] | 89.3 |  | < 5 |  |  | 1 | 
7 | COc1cc(C(C)C)ccc(CN2CCN(C(c3ccccc3)c3ccc(Cl)cc3)CC2)c1=O (stereo not drawn) [Compound 2A, 7-[4-(4-chlorobenzhydryl)piperazino-1-methyl]-4-isopropyl-2-methoxy-2,4,6-cycloheptatrien-1-one] | 28.8 | 84.7 |  | 61 | 1.8 |  | minimal effective dose ([3]; ip, # methanesulfonate, route cell empty (method: intraperitoneally)): 3 mg/kg; minimal effective dose (ventricular arrhythmia; value marked # (methanesulfonate per footnote of Table 5)): 0.3 mg/kg
8 | COc1cc(C(C)C)ccc(C2Sc3ccccc3N2CCc2ccccc2)c1=O (stereo not drawn) [Compound 1B, 2-(2'-oxo-3'-methoxy-5'-isopropyl-3',5',7'-cycloheptatrienyl)-3-phenethylbenzothiazoline] | 91.8 | 93.1 |  |  |  | 0.1 | minimal effective dose (cerebral blood flow): ≥ 3 mg/kg
9 | CC(C)c1ccc(CN2CCN(C(c3ccc(F)cc3)c3ccc(F)cc3)CC2)c(=O)c(NCCN(C)C)c1 [Compound 1C, 7-[4-(4,4'-difluorobenzhydryl)piperazino-1-methyl]-2-(N-2-dimethylaminoethylamino)-4-isopropyl-2,4,6-cycloheptatrien-1-one] | 59.4 | 95.3 |  | 81 |  |  | minimal effective dose [4]: 100 mg/kg
